Results: US20070280938A1, “Peptides Derived from Natural Cytotoxicity Receptors and Methods of Use Thereof” (YISSUM RESEARCH AND DEVELOPMENT COMPANY OF THE HEBREW …, priority 2003, published 2007)
Entries after “also recorded” stand apart in the source; their conditions may differ.

Columns and labels:
NKp30-Ig [1] = biological target: T1, NKp30-Ig (Homo sapiens, UniProt O14931); test: Inhibition of NKp30-Ig binding to tumor cells by premixed saccharides (flow cytometry); conditions: cell line not specified
T1 construct: made in house
T1 sequence (O14931 with tags, fused parts or gaps P25L): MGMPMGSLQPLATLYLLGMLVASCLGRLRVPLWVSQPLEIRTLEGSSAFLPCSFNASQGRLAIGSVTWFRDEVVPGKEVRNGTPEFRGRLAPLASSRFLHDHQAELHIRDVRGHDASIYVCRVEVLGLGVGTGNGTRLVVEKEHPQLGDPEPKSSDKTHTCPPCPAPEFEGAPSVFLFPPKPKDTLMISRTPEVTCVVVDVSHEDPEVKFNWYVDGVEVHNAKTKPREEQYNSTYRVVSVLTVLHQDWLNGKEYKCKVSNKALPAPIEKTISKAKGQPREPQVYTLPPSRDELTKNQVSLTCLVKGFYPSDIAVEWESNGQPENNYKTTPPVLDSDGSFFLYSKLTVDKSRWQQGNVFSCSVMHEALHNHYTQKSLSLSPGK
Procedure: (§1) Cells were incubated with the various fusion-Igs for 2 h at 4° C., washed and stained with FITC-conjugated-F(ab′)2-Goat-anti-human-IgG-Fcy (109-096-098, Jackson ImmunoResearch, West Grove, Pa.). Staining and washing buffer consisted of 0.5% (w/v) BSA and 0.05% sodium azide in PBS. Staining of CHO and mutant CHO cells was carried out with 2% FCS instead of bovine serum albumin (BSA) in the different buffers. Propidium iodide (PI) was added prior to reading for exclusion of dead cells. Flow cytometry was performed using a FACSCalibur flow cytometer (Becton Dickinson, Mountain View, Calif.). Data files were acquired and analyzed using BD CELLQuest™ 3.3 software.
(§2) For most binding inhibition experiments, 20 μg of fusion-Ig were premixed with the GAG and added to cells for staining as above. In all experiments, each sample was stained twice in different wells. When results are presented as MFI (median fluorescence intensity), average MFI∓SD of the duplicate staining is shown to reveal consistency of staining procedure. Human IgG1 (hIgG1 kappa, PHP010) was purchased from Serotec, Oxford, UK. Staining with the anti-heparin/heparan sulfate antibody HS4E4 was previously described (35).

NKp46D2-Ig [2] = biological target: T2, NKp46D2-Ig (Homo sapiens, UniProt O76036); test: Inhibition of NKp46D2-Ig binding to tumor cells by premixed saccharides (flow cytometry); conditions: for Inhibition of binding of NKp46D2-Ig to tumor cells: cell line not specified; for Inhibition of binding of NKp46D2-Ig: HeLa and PC-3, FIGS. 2B, 2C
T2 construct: residues 101-235 (D2) of the mature NKp46 protein were PCR amplified; CD5 leader peptide (with added Met start codon) (N); made in house
T2 sequence (O76036 with tags, fused parts or gaps isoform O76036-6): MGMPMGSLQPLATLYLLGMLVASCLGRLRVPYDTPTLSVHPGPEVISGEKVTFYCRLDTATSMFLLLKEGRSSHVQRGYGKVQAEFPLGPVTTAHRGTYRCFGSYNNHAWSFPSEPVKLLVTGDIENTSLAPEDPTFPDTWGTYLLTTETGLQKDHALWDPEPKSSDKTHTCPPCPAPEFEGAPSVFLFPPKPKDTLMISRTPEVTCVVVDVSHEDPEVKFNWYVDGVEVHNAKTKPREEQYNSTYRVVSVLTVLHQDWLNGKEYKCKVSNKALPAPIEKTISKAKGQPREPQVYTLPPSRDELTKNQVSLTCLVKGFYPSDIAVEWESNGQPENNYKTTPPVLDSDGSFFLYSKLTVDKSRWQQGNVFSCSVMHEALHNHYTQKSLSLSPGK
Procedure: as §1, §2

NKp30-Ig [3] = biological target: T3, NKp30-Ig (Homo sapiens, UniProt O14931, P25L); test: Inhibition of NKp30-Ig binding to tumor cells by premixed saccharides (flow cytometry)
T3 construct: made in house
T3 sequence (O14931 with tags, fused parts or gaps P25L): as the sequence (O14931 with tags, fused parts or gaps P25L) above
Procedure: as §1, §2

LIR1-Ig = biological target: T4, LIR1-Ig (Homo sapiens, UniProt Q8NHL6); test: Effect of premixed saccharides on LIR1-Ig binding to HeLa cells (flow cytometry); conditions: Glyc-PAA mixed with Ig-fusion protein, FIG. 1A
T4 construct: made in house
T4 sequence (Q8NHL6 with tags, fused parts or gaps limits assumed): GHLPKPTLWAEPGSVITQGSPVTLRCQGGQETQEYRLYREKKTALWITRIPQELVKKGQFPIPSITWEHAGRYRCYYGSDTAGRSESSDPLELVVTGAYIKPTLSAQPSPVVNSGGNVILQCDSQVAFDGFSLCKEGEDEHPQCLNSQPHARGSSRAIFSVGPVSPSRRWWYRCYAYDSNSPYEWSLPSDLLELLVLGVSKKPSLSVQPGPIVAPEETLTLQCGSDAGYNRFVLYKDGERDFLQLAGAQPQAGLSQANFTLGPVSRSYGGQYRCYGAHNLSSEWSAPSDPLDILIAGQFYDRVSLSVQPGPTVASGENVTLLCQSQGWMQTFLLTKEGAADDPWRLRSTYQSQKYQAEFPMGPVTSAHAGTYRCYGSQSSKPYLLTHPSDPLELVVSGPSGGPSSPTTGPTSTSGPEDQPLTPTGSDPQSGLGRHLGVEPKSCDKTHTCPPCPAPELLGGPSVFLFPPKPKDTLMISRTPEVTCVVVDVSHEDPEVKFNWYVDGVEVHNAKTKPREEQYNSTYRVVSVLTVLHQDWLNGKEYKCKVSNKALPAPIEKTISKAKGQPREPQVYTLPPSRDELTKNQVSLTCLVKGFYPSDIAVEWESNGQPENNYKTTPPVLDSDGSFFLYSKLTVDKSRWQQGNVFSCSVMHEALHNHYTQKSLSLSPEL
Procedure: as §1, §2

HeLa cells [4] = test: Lysis of HeLa cells by primary NK lines (cytotoxicity assay); assay type: cell-based, human; conditions: FIG. 6A
Procedure: The cytotoxic activity of NK lines against the various targets was assessed in 5-hr 35S-release assays and in 4-hr Eu release time-resolved fluorescence assays, as previously described (20). In experiments where carbohydrates were included, NK cells were first mixed with the carbohydrates and then added to target cells. […] Each point represents the average of duplicate/triplicate values.
To test the role of NKp46 and NKp30 recognition of carbohydrates in NK lysis, the lysis of HeLa cells by NKs in the presence of Glyc-PAA was studied.

NKp46D2-Ig [5] = test: Treatment of tumor cells (GAG-degrading enzymes, glycosylation or GPI-anchor blockers) then staining with NKp46D2-Ig; assay type: cell-based, human
Procedure: as §1
(§3) Tumor cells (10^6) were washed twice in PBS, resuspended in 1ml reaction buffer alone (mock) or reaction buffer containing one of the following GAG-degrading enzymes (Sigma): keratanase (0.94 u/ml, K-2876), heparin lyase I (1.56 u/ml, H-2519) and heparin lyase III (1.25 u/ml, H-8891). Reaction buffer consisted of 1% (w/v) BSA, 1 μg/ml leupeptin and 10 u/ml aprotinin in PBS. Cells were incubated with enzyme for 60 min at 37° C., washed two times with PBS and stained with fusion-Igs as above.
(§4) The involvement of cell membrane-associated GAGs in the binding of NKp46D2-Ig and NKp30-Ig to their cellular ligands was examined. […]

NKp30-Ig [6] = test: Treatment of tumor cells (GAG-degrading enzymes, glycosylation or GPI-anchor blockers) then staining with NKp30-Ig; assay type: cell-based, human
Procedure: as §1, §3, §4

[7] = test system: mutant CHO cells lacking HSPG; test: Binding to mutant CHO cells lacking HSPG; conditions: as compared to wt CHO cells; FIG. 7A
Procedure: as §1
To further test the role of NKp46 and NKp30 recognition of carbohydrates in NK lysis, the lysis of CHO mutants lacking HSPG was examined. […] Thus, reduction in binding of NKp46-D2-Ig and NKp30-Ig to tumor cells lacking HSPG is correlated with reduced lysis of these cells by NK cells.

EB-SP = test: Staining of EB-SP cells expressing cell-surface heparanase with fusion-Igs; assay type: binding, murine; conditions: as compared to parental EB or EB-mock transfected
Procedure: as §1
The EB T lymphoma cell line and EB-SP cells that express a functional heparanase on the cell surface (16) were stained with NKp46D2-Ig. […] An alternative interpretation is that the binding is to a cell-surface molecule associated with heparan sulfate. […] Membrane-associated heparan sulfate proteoglycans (HSPGs) can be divided into two families: glypicans, which are attached to the plasma membrane via glycosylphosphatidylinositol (GPI) anchors, and syndecans, which are transmembrane proteins (23). The involvement of GPI-anchored proteins in the binding of NKp30-Ig and NKp46D2-Ig to tumor cells was examined. Treatment of cells with D-mannosamine (white bars) inhibits GPI-anchor formation.

HeLa cells [8] = test: Staining of HeLa cells with fusion-Igs (flow cytometry); assay type: binding, human
Procedure: as §1

IV-infected cells = test: Binding of wild type and mutated NKp46D2 fusion proteins to IV-infected cells; conditions: FIG. 10
Procedure: as §1
Based on the observations described above, certain site-directed mutations were made in NKp46D2 (Lys 157, Arg 160, His 163 and Arg 166; 4 point mutations) or (Lys 157, Arg 160, His 163, Arg 166, and Lys 170; 5 point mutations) into hydrophilic, neutral, amino acids with residues of similar size and to compare the ability of the mutant and the wild type receptors to bind heparin/heparan sulfate. Two constructs were prepared: Q4 (K157Q, R160Q, H163Q, and R166Q) and Q4T1 (K157Q, R160Q, H163Q, R166Q, and K170T). The mutated referred to herein as SEQ ID NO:29 SEQ ID NO:30.. Corresponding fusion proteins were prepared (NKp46D2-Q4-Ig and NKp46D2-Q4T1-Ig) and compared to NKp46D2-Ig.

[9] = Glyc-PAA mixed with Ig-fusion protein, HeLa cells, FIG. 1A
[10] = Glyc-PAA premix, inconsistent inhibition phenotype
[11] = HeLa cells pretreated with 40mM D-mannosamine overnight, FIG. 4D
[12] = tumor cells treated before staining

## 3′-O-sulfo-LacNAc
NKp30-Ig [1]
  Inhibition of binding of NKp30-Ig to tumor cells: did not inhibit binding
NKp46D2-Ig [2]
  Inhibition of binding of NKp46D2-Ig to tumor cells: did not inhibit binding

## 4 ′, 6′-di-O-sulfo-LacNAc
NKp30-Ig [1]
  Inhibition of binding of NKp30-Ig to tumor cells: did not inhibit binding
NKp46D2-Ig [2]
  Inhibition of binding of NKp46D2-Ig to tumor cells: did not inhibit binding

## 6-O-sulfo-LacNAc-PAA
NKp30-Ig [3]; [9]
  Inhibition of binding of NKp30-Ig to HeLa cells: inhibited
NKp46D2-Ig [2]; [9]
  Inhibition of binding of NKp46D2-Ig to HeLa cells: inhibited binding
NKp46D2-Ig [2]; cells pre-incubated with the saccharide, followed by wash and application of the fusion proteins
  Effect on binding of the fusion proteins after pre-incubation of the cells: did not affect the binding
LIR1-Ig
  Inhibition of binding of LIR1-Ig to HeLa cells: not the positive binding of LIR1-Ig
HeLa cells [4]; 0.9 mM
  Reduction of lysis of HeLa cells by NK: significant reduction of lysis
HeLa cells [4]; agent present during lysis assay, Glyc-PAA 0.225 to 0.9 mM, E:T 50:1, 4 h
  Reduction of lysis of HeLa cells by NK: two fold

## 6′-O-sulfo-LacNAc
NKp30-Ig [3]; [10]
  reduction in binding of NKp30-Ig: up to 25%
NKp46D2-Ig [2]; [10]
  reduction in binding of NKp46D2-Ig: up to 25%

## N[C@@H]1C(O)O[C@H](CO)[C@@H](O)[C@@H]1O (stereo partly drawn) [D-mannosamine]
NKp46D2-Ig [5]; [11]
  Reduction of binding of NKp46D2-Ig: 4 fold
NKp30-Ig [6]; [11]
  Reduction of binding of NKp30-Ig: 2 fold

## CC(=O)N[C@H]1[C@@H](OCc2ccccc2)O[C@H](CO)[C@H](O)[C@@H]1O [abenzyl-GalNAc]
NKp46D2-Ig [5]; [12]
  Effect of cell treatment on binding of NKp46D2-Ig: significantly reduced the binding
NKp30-Ig [6]; [12]
  Effect of cell treatment on binding of NKp30-Ig: significantly reduced the binding

## N-desulfated heparin
NKp46D2-Ig [2]; heparins modified in sulfation or acetylation, HeLa cells, FIG. 2D
  Inhibition of NKp46D2-Ig binding by modified heparins: potent inhibitor

## heparan sulfate
NKp30-Ig [1]
  Inhibition of binding of NKp30-Ig to tumor cells: directly inhibits the binding; also recorded: potent inhibitors
NKp46D2-Ig [2]; 0.1 μg/ml
  Inhibition of binding of NKp46D2-Ig: inhibit binding
NKp46D2-Ig [2]
  Inhibition of binding of NKp46D2-Ig to tumor cells: directly inhibits the binding; also recorded: potent inhibitors

## hyaluronic acid
NKp46D2-Ig [2]; incremental concentrations up to 10 μg/ml
  Inhibition of binding of NKp46D2-Ig: did not inhibit binding

B1: NKp46D2-Ig: truncated fusion protein: D2 of NKp46 with CD5 leader fused to Fc portion of human IgG1 (protein)
chain: MAWMLLLILIMVHPGSCALWVSQPPEIRTLEGSSAFLPCSFNASQGRLAIGSVTWFRDEVVPGKEVRNGTPEFRGRLAPLASSRFLHDHQAELHIRDVRGHDASIYVCRVEVLGLGVGTGNGTRLVVEKEHPQLGAGTVLLLRAGFYAVSFLSVAVGSTVYYQGKCLTWKGPRRQLPAVVPAPLPPPCGSSAHLLPPVPGG
modifications: homo sapiens
[7]
  Binding to mutant CHO cells lacking HSPG: significantly reduced
EB-SP; FIG. 4C
  Reduction of staining of EB-SP: 50%
HeLa cells [8]
  Binding to HeLa cells: bound well
IV-infected cells
  Binding to IV-infected cells: bind similarly

B2: NKp30-Ig: protein conjugate comprising CD5 leader sequence and NKp30 D domain fused to Fc domain (protein)
chain: MAWRALHPLLLLLLLFPGSQAQSKAQVLQSVAGQTLTVRCQYPPTGSLYEKKGWCKEASALVCIRLVTSSKPRTMAWTSRFTIWDDPDAGFFTVTMTDLREEDSGHYWCRIYRPSDNSVSKSVRFYLVVSPASASTQTPWTPRDLVSSQTQTQSCVPPTAGARQAPESPSTIPVPSQPQNSTLRPGPAAPIALVPVFCGLLVAKSLVLSALLVWWGDIWWKTVMELRSLDTQKATCHLQQVTDLPWTSVSSPVEREILYHTVARTKISDDDDEHTL
modifications: homo sapiens
[7]
  Binding to mutant CHO cells lacking HSPG: significantly reduced
EB-SP
  Staining of EB-SP compared with EB: same phenotype
HeLa cells [8]
  Binding to HeLa cells: bound well
